Experimental data reported in PubChem BioAssay AID330 (DTP/NCI, 2004).
“And” between values parts separate entries of the source, which are not always exact repeats. Equal entries are not always repeated. Toxic doses and inconclusive results are not listed. How the source made its calls: active means survival T/C of 150% or more; inactive means T/C below 125% in these data.

Test system: P388 leukemia ip, CD2F1 mice, survival T/C
Test: NCI In Vivo Anticancer Drug Screen. Data for tumor model P388 Leukemia (intraperitoneal) in CD2F1 (CDF1) mice
Conditions: endpoint: median survival time, higher = longer survival
Method in brief: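 Mice carrying the transplanted tumor received test compound or vehicle. Survival was recorded in each group, and the value is the treated-group measurement divided by that of the vehicle-treated control group.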

[1] = dose: 12.5 mg/kg/injection, schedule: Q01DX009 (ip), vehicle: saline
[2] = dose: 25.0 mg/kg/injection, schedule: Q01DX009 (ip), vehicle: saline
[3] = dose: 50.0 mg/kg/injection, schedule: Q01DX009 (ip), vehicle: saline
[4] = dose: 50.0 mg/kg/injection, schedule: Q01DX005 (ip), vehicle: saline with Tween-80
[5] = dose: 100.0 mg/kg/injection, schedule: Q01DX005 (ip), vehicle: saline with Tween-80
[6] = dose: 200.0 mg/kg/injection, schedule: Q01DX005 (ip), vehicle: saline with Tween-80
[7] = dose: 50.0 mg/kg/injection, schedule: Q01DX009 (ip), vehicle: Klucel (hydroxypropylcellulose) (HPC)
[8] = dose: 50.0 mg/kg/injection, schedule: Q01DX009 (ip), vehicle: saline with Tween-80
[9] = dose: 100.0 mg/kg/injection, schedule: Q01DX009 (ip), vehicle: saline with Tween-80
[10] = dose: 200.0 mg/kg/injection, schedule: Q01DX009 (ip), vehicle: saline with Tween-80
[11] = dose: 12.5 mg/kg/injection, schedule: Q01DX001 (ip), vehicle: Klucel (hydroxypropylcellulose) (HPC)
[12] = dose: 25.0 mg/kg/injection, schedule: Q01DX001 (ip), vehicle: Klucel (hydroxypropylcellulose) (HPC)
[13] = dose: 50.0 mg/kg/injection, schedule: Q01DX001 (ip), vehicle: Klucel (hydroxypropylcellulose) (HPC)
[14] = dose: 100.0 mg/kg/injection, schedule: Q04DX003 (ip), vehicle: saline with Tween-80
[15] = dose: 200.0 mg/kg/injection, schedule: Q04DX003 (ip), vehicle: saline with Tween-80
[16] = dose: 400.0 mg/kg/injection, schedule: Q04DX003 (ip), vehicle: saline with Tween-80
[17] = dose: 50.0 mg/kg/injection, schedule: Q01DX005 (ip), vehicle: saline
[18] = dose: 60.0 mg/kg/injection, schedule: Q01DX005 (ip), vehicle: saline
[19] = dose: 120.0 mg/kg/injection, schedule: Q01DX005 (ip), vehicle: saline
[20] = dose: 240.0 mg/kg/injection, schedule: Q01DX005 (ip), vehicle: saline

Measured: T/C

CCCCCCCCCC[N+](C)(C)CCO
inactive: [1] 118 % of control | [2] 109 % of control | [3] 116 % of control

C[Si](C)(C)C#CC(C(O)c1ccccc1)N1CCCC1 (configuration not stated)
inactive: dose: 100.0 mg/kg/injection, schedule: Q04DX003 (ip), vehicle: saline 94 % of control | dose: 200.0 mg/kg/injection, schedule: Q04DX003 (ip), vehicle: saline 92 % of control | dose: 400.0 mg/kg/injection, schedule: Q04DX003 (ip), vehicle: saline 101 % of control

S=P(Oc1cc(Cl)c(Cl)cc1Cl)(N1CCN(c2cccc(Cl)c2)CC1)N1CCN(c2cccc(Cl)c2)CC1
inactive: [4] 97 % of control | [5] 88 % of control | [6] 86 % of control

O=C(NCc1ccc(Cl)cc1)OCc1c2ccccc2cc2ccccc12
inactive: [7] 95 % of control | dose: 100.0 mg/kg/injection, schedule: Q01DX009 (ip), vehicle: Klucel (hydroxypropylcellulose) (HPC) 93 % of control

CN1CC2c3ccccc3C(=O)C1(O)c1ccccc12 (configuration not stated)
inactive: [4] 103 % of control | [5] 103 % of control | [6] 103 % of control

[Cu+2].[NH-]C(CCC(N)=O)C(=O)O.[NH-]C(CCC(N)=O)C(=O)O (configuration not stated)
inactive: dose: 6.25 mg/kg/injection, schedule: Q04DX003 (ip), vehicle: saline 100 % of control | dose: 12.5 mg/kg/injection, schedule: Q04DX003 (ip), vehicle: saline 90 % of control

O=C1CC(c2ccccc2)C(c2ccccc2)CO1 (configuration not stated)
inactive: dose: 25.0 mg/kg/injection, schedule: Q04DX003 (ip), vehicle: Klucel (hydroxypropylcellulose) (HPC) 91 % of control | dose: 50.0 mg/kg/injection, schedule: Q04DX003 (ip), vehicle: Klucel (hydroxypropylcellulose) (HPC) 92 % of control | dose: 100.0 mg/kg/injection, schedule: Q04DX003 (ip), vehicle: Klucel (hydroxypropylcellulose) (HPC) 88 % of control and 92 % of control | dose: 400.0 mg/kg/injection, schedule: Q04DX003 (ip), vehicle: Klucel (hydroxypropylcellulose) (HPC) 87 % of control

Nc1nc2c(c(-c3nc(N)nc4c3Cc3ccccc3-4)n1)Cc1ccccc1-2
inactive: dose: 60.0 mg/kg/injection, schedule: Q01DX005 (ip), vehicle: saline with Tween-80 98 % of control | dose: 120.0 mg/kg/injection, schedule: Q01DX005 (ip), vehicle: saline with Tween-80 100 % of control

CC(=O)O[C@H]1/C=C(\C)[C@@H](O)C/C=C(\C)CC(OC(=O)c2ccccc2)[C@H]1C(C)C (some centres not stated)
inactive: dose: 12.5 mg/kg/injection, schedule: Q01DX005 (ip), vehicle: Klucel (hydroxypropylcellulose) (HPC) 98 % of control | dose: 25.0 mg/kg/injection, schedule: Q01DX005 (ip), vehicle: Klucel (hydroxypropylcellulose) (HPC) 98 % of control | dose: 50.0 mg/kg/injection, schedule: Q01DX005 (ip), vehicle: Klucel (hydroxypropylcellulose) (HPC) 100 % of control | dose: 100.0 mg/kg/injection, schedule: Q01DX005 (ip), vehicle: Klucel (hydroxypropylcellulose) (HPC) 95 % of control

CCOC(=O)C(C#N)(CCC(=NC(C)(C)C)Nc1c(Cl)cccc1Cl)CCC(=NC(C)(C)C)Nc1c(Cl)cccc1Cl (configuration not stated)
inactive: [8] 105 % of control | [9] 101 % of control | [10] 92 % of control

CCN(CC)c1ccc2nc3ccc(N=Nc4c(O)ccc5ccccc45)cc3[n+](-c3ccccc3)c2c1
inactive: dose: 0.75 mg/kg/injection, schedule: Q01DX005 (ip), vehicle: saline with Tween-80 115 % of control | dose: 1.5 mg/kg/injection, schedule: Q01DX005 (ip), vehicle: saline with Tween-80 120 % of control | dose: 3.0 mg/kg/injection, schedule: Q01DX005 (ip), vehicle: saline with Tween-80 120 % of control | dose: 6.0 mg/kg/injection, schedule: Q01DX005 (ip), vehicle: saline with Tween-80 90 % of control

CC(=O)NC(CCl)(OC(C)=O)C(=O)OCc1ccc([N+](=O)[O-])cc1 (configuration not stated)
inactive: [11] 102 % of control | [12] 108 % of control | [13] 100 % of control | [14] 106 % of control | [15] 120 % of control | [16] 100 % of control

O=S(=O)(O)c1ccc2cc3nn(-c4ccc(/C=C/c5ccc(-n6nc7cc8ccc(S(=O)(=O)O)cc8cc7n6)cc5S(=O)(=O)O)c(S(=O)(=O)O)c4)nc3cc2c1
inactive: [3] 97 % of control | dose: 100.0 mg/kg/injection, schedule: Q01DX009 (ip), vehicle: saline 97 % of control

c1ccc(Cc2cc[n+](Cc3ccccc3)cc2)cc1
inactive: [1] 100 % of control | [2] 101 % of control | [3] 101 % of control and 89 % of control

COC(=O)Cn1/c(=N\N=C\c2ccc(C)cc2)sc2ccccc21
inactive: dose: 100.0 mg/kg/injection, schedule: Q01DX001 (ip), vehicle: saline with Tween-80 91 % of control | dose: 200.0 mg/kg/injection, schedule: Q01DX001 (ip), vehicle: saline with Tween-80 91 % of control | dose: 400.0 mg/kg/injection, schedule: Q01DX001 (ip), vehicle: saline with Tween-80 89 % of control

CC(C)C(=O)CCC(=O)O
inactive: [17] 106 % of control | dose: 100.0 mg/kg/injection, schedule: Q01DX005 (ip), vehicle: saline 97 % of control | dose: 200.0 mg/kg/injection, schedule: Q01DX005 (ip), vehicle: saline 98 % of control

C[n+]1ccc(I)c2ccc(Cl)cc21
inactive: dose: 12.5 mg/kg/injection, schedule: Q01DX009 (ip), vehicle: Klucel (hydroxypropylcellulose) (HPC) 101 % of control | dose: 25.0 mg/kg/injection, schedule: Q01DX009 (ip), vehicle: Klucel (hydroxypropylcellulose) (HPC) 104 % of control | [7] 109 % of control

CN(C)CN1C(=O)S/C(=C2\C(=O)N(C)c3ccc(Br)cc32)C1=O
inactive: dose: 100.0 mg/kg/injection, schedule: Q01DX001 (ip), vehicle: Klucel (hydroxypropylcellulose) (HPC) 101 % of control | dose: 200.0 mg/kg/injection, schedule: Q01DX001 (ip), vehicle: Klucel (hydroxypropylcellulose) (HPC) 95 % of control | dose: 400.0 mg/kg/injection, schedule: Q01DX001 (ip), vehicle: Klucel (hydroxypropylcellulose) (HPC) 97 % of control

COC(=O)C(C)CP(=O)(O)OC (configuration not stated)
inactive: dose: 50.0 mg/kg/injection, schedule: Q01DX005 (ip), vehicle: water 97 % of control | dose: 100.0 mg/kg/injection, schedule: Q01DX005 (ip), vehicle: water 98 % of control | dose: 200.0 mg/kg/injection, schedule: Q01DX005 (ip), vehicle: water 114 % of control

CC1(C)C[C@@]2(F)C(=O)NC(=O)N[C@@H]12
inactive: [11] 103 % of control | [12] 106 % of control | [13] 99 % of control

Nc1cccc(-n2ccnc2)c1
inactive: dose: 100.0 mg/kg/injection, schedule: Q04DX002 (ip), vehicle: saline with Tween-80 100 % of control | dose: 200.0 mg/kg/injection, schedule: Q04DX002 (ip), vehicle: saline with Tween-80 93 % of control | dose: 400.0 mg/kg/injection, schedule: Q04DX002 (ip), vehicle: saline with Tween-80 90 % of control

CC(C)(O)c1cccs1
inactive: [18] 100 % of control | [19] 100 % of control | [20] 99 % of control

CC(c1ccccc1)N1COc2ccc3ccccc3c2C1 (configuration not stated)
inactive: [14] 95 % of control | [15] 95 % of control | [16] 95 % of control

O=C1CCC2OC3CCC(=O)N3CN12 (configuration not stated)
inactive: [4] 97 % of control | [5] 98 % of control | [6] 98 % of control

COc1nc(NC2OC(CO)C(O)C(O)C2O)c(/C=N/O)c(=O)n1C (configuration not stated)
inactive: [18] 99 % of control | [19] 103 % of control | [20] 99 % of control

CC(=O)C[n+]1ccccc1Oc1ccccc1
inactive: dose: 25.0 mg/kg/injection, schedule: Q01DX005 (ip), vehicle: saline 93 % of control | [17] 96 % of control

CC1CC(C)C(C)C(C)(CN(C)C)C1 (configuration not stated)
inactive: dose: 12.5 mg/kg/injection, schedule: Q01DX005 (ip), vehicle: saline with Tween-80 102 % of control | dose: 25.0 mg/kg/injection, schedule: Q01DX005 (ip), vehicle: saline with Tween-80 98 % of control | [4] 100 % of control and 96 % of control

S=C1N(c2ccc(Cl)cc2)C2=C(N=Nc3ccccc3)C(=Nc3ccccc3S2)N1c1ccccn1
inactive: [4] 109 % of control | [5] 108 % of control

COC(=O)c1[nH]c(=O)c2ccc([N+](=O)[O-])cc2c1O
inactive: [8] 86 % of control | [9] 88 % of control | [10] 86 % of control
